Experimental data taken from patent US20010046498A1, “Chimeric prostate-homing peptides with pro-apoptotic activity” (priority 2000, published 2001).
Where two headings read alike, the source gives them in different places. Bridge positions count the residues as written; N and C are the ends. Square brackets hold non-standard residues; d marks the D form. Peptide text beside a SMILES is read from it.

Key:
tumor = assay: Competition of GSL phage homing by free peptide; set-up: species or system mice; conditions: mouse, in vivo
Description: A third motif, GSL (glycine-serine-leucine), also was identified following in vivo panning in mice bearing breast carcinoma, malignant melanoma or Kaposi's sarcoma. Homing of phage expressing the GSL peptide, CGSLVRC (SEQ ID NO: 5), was inhibited by coadministration of the free CGSLVRC (SEQ ID NO: 5) peptide. Like the RGD and NGR peptides, phage expressing GSL peptides also bound to blood vessels of tumors. In view of the identification of the conserved RGD, NGR and GSL motifs present in tumor homing peptides, as disclosed herein, it will be recognized that peptides containing such motifs can be useful as tumor homing peptides and, in particular, for forming homing pro-apoptotic conjugates that can selectively deliver an […] peptide to a tumor.

KS1767 cells = assay: LC50 for KS1767 cells scored by apoptotic morphology; format: cell-based; conditions: proliferating KS1767 cells; read-out: LC50 KS1767 Prolif.
Description: (§1) Briefly, dermal microvessel endothelial cells (DMECs) were grown in CADMEC Growth Media™ (Cell Applications, Inc.; San Diego, Calif.). Dermal microvessel endothelial cells were then cultured under three experimental conditions: proliferation, 30% confluency in a growth media supplemented with 500 ng/ml human recombinant vascular endothelial growth factor (VEGF; Pharmingen); no proliferation, 100% confluency in media formulated to maintain a monolayer; and cord formation, 60% confluency (required for induction) in media formulated to induce cord formation. The KS1767 and MDA-MB-435 cells were cultured as described in Arap et al., supra, 1998; Hernier et al., supra, 1994).
(§2) Percent viability and LC50 (Table 1) were determined by apoptotic morphology as described in Ellerby et al., J. Neurosci. 17:6165-6178 (1997). For the percent viability assays, dermal microvessel endothelial cells were treated with 60 μM HPP-1 or control peptide D(KLAKLAK)2. At the indicated time points, cell culture medium was aspirated from adherent cells, and the cells were gently washed once with PBS at 37° C. […] At least 500 cells were scored for a given time point in each experiment. Percent viability was calculated relative to untreated controls. The LC50 for monolayer, proliferation (60% confluency), and cord formation were scored at 72 hours.

[1] = system: dermal microvessel endothelial cells; assay: Mitochondrial morphology of proliferating DMECs (MitoTracker Red / DAPI); format: cell-based, human; conditions: 60 μM peptide
Description: Mitochondrial morphology of dermal microvessel endothelial cells was assessed in proliferating cells after treatment with 60 μM HPP-1, […]-GG-D(KLAKLAK)2 or untargeted D(KLAKLAK)2 as follows. Dermal microvessel endothelial cells were stained after 24 and 72 hours treatment with peptide by incubation for 30 min at 37° C. with 100 nM mitochondrial stain MitoTracker Red™ (Molecular Probes, Inc., Eugene Oreg.) and 500 nM of the nuclear stain DAPI (Molecular Probes, Inc.). Mitochondria were subsequently visualized using fluorescence microscopy (100×) under an inverted microscope using a triple wavelength filter set (Nikon).

[2] = system: normal human dermal microvessel endothelial cells (DMECs); format: cell-based; set-up: dose or concentration left out as unconfirmed; conditions: proliferation or cord formation
in vitro = format: cell-based; conditions: human; monolayer at 100% confluency; scored at 72 hours; means of three independent experiments; read-out: LC50 DMEC Angiostatic
Description: (§3) The effect of HPP-1 was assayed on normal human dermal microvessel endothelial cells (DMECs) under the angiogenic conditions of proliferation and cord formation. In addition, the effect of HPP-1 was assayed under the angiostatic condition of a monolayer maintained at 100% confluency (as described below).
as §1
as §2, with “C. Subsequently, a 20-fold dilution of the dye mixture (100 μg/ml acridine orange and 100 μg/ml ethidium bromide) in PBS was gently pipetted on the cells, which were viewed on an inverted microscope (Nikon TE 300).” for “C.”

[3] = system: normal human dermal microvessel endothelial cells (DMECs); assay: in vitro; format: cell-based; conditions: for CC50: scored at 72 hours
Description: as §3, §1
as §2, with “C. Subsequently, a 20-fold dilution of the dye mixture (100 μg/ml acridine orange and 100 μg/ml ethidium bromide) in PBS was gently pipetted on the cells, which were viewed on an inverted microscope (Nikon TE 300).” for “C.”

[4] = system: human MDA-MD-435 breast carcinoma xenografts; assay: Treatment of nude mice bearing breast carcinoma xenografts; format: in vivo
Description: (§4) The activity of HPP-1 was tested in vivo using nude mice bearing human MDA-MD-435 breast carcinoma xenografts as follows. Briefly, MDA-MB-435 and C8161-derived tumor xenografts were established in 2 month-old female nude mice (Jackson Labs; Bar Harbor, Me.) as described in Arap et al., supra, 1998. After mice were anesthetized with a mixture of 2,2,2-tribromoethanol (Aldrich; Milwaukee, Wis.) and 2-methyl-butanol (Aldrich) prepared in distilled water, peptides were administered intravenously through the tail vein at a dose of 250 μg/week/mouse given slowly in a volume of 200 μl. Three-dimensional measurements of tumors were taken by caliper under anesthesia and used to calculate tumor volume (Pasqualini et al., supra, 1996).

[5] = system: tumors derived from the human melanoma cell line C8161; assay: Treatment of nude mice bearing C8161 melanoma xenografts; format: in vivo; conditions: similar experiments
Description: as §4

[6] = system: caspase activation in dermal microvessel endothelial cells; assay: Caspase activity (DEVD-pNA hydrolysis) in DMEC lysates; format: cell-based, human; conditions: proliferating DMECs
Description: Characteristic caspase-3 processing was measured in dermal microvessel endothelial cell lysates as described in Ellerby et al., supra, 1997. Briefly, aliquots of cell lysates (1 μl lysate, 8-15 mg/ml) were added to 100 μM N-acetyl-Asp-Glu-Val-Asp-pNA (DEVD-pNA; BioMol; 100 μl, 100 mM HEPES, 10% sucrose, 0.1% CHAPS, 1 mM DTT, pH 7.0). Hydrolysis of DEVD-PNA was monitored spectrophotometrically (400 nm) at 25° C.

[7] = system: MDA-MB-435 human breast carcinoma cells; assay: LC50 for MDA-MB-435 cells scored by apoptotic morphology; format: cell-based
Description: as §1, §2

[8] = 250 μg/week/mouse intravenously

Molecule	effect of coadministered free peptide on homing of CGSLVRC phage (tumor)	CC50 (KS1767 cells) [µM]	morphological indicators of apoptosis (nuclear condensation and fragmentation) ([1]; 72 hours)	cells with altered mitochondrial morphology ([1]; proliferating cells, before the cells rounded-up)	percent viability with time relative to untreated controls [2]	CC50 at 72 h (in vitro) [µM]	LC50 for proliferating or migrating DMECs relative to LC50 for angiostatic DMECs ([3]; angiogenic versus angiostatic conditions)	CC50 ([3]; cord formation, read-out: LC50 DMEC Angiogenic Cord Form) [µM]	CC50 ([3]; proliferation with VEGF, read-out: LC50 DMEC Angiogenic Prolif.) [µM]	histopathological analysis of tumors [4, 8]	survival versus control groups [4, 8]	tumor volume versus controls [4, 8]	apoptotic cell death in tumors ([4]; histopathological analysis)	effect against C8161 melanoma tumors [5]	apoptotic cell death by caspase activity [6]	toxicity to MDA-MB-435 cells relative to KS1767 cells and angiogenic DMECs [7]	CC50 ([7]; proliferating MDA-MB-435 cells, read-out: LC50 MDA-MB-435 Prolif.) [µM]
CGSLVRC [GSL tumor homing peptide]	inhibited																
CC(C)C[C@@H](NC(=O)[C@@H](CCCCN)NC(=O)CNC(=O)CNC(=O)[C@@H]1CSSC[C@H](N)C(=O)N[C@@H](CC(N)=O)C(=O)NCC(=O)N[C@@H](CCCNC(=N)N)C(=O)N1)C(=O)N[C@H](C)C(=O)N[C@H](CCCCN)C(=O)N[C@H](CC(C)C)C(=O)N[C@H](C)C(=O)N[C@H](CCCCN)C(=O)N[C@H](CCCCN)C(=O)N[C@H](CC(C)C)C(=O)N[C@H](C)C(=O)N[C@H](CCCCN)C(=O)N[C@H](CC(C)C)C(=O)N[C@H](C)C(=O)N[C@H](CCCCN)C(=O)O [HPP-1, CNGRC-GG-D(KLAKLAK)2] (H-CNGRCGG[dK][dL][dA][dK][dL][dA][dK][dK][dL][dA][dK][dL][dA][dK]-OH; disulfide 1-5)		42	exhibited the classic morphological indicators of apoptosis	approximately 80%	decrease in percent viability with time	481	an order of magnitude lower	34	51	pronounced destruction of tumor architecture and widespread cell death	survival was longer	smaller, on average by one order of magnitude	about 50%	effective	Apoptotic cell death was confirmed	less toxic to MDA-MB-435 human breast carcinoma cells by approximately one order of magnitude	415
